The compounds below were run against T1, human PAH with the R408W mutation (Homo sapiens, UniProt P00439, R408W) (assay: Cell Based Phenylalanine Flux Assay). Settings: A375 cells expressing human PAH R408W; 24 hrs compound incubation; 13C-Tyrosine by LC-MS; average where tested multiple times; read-out: AC50.
T1 construct: expressed in transfected cells
T1 sequence (P00439 1-452 R408W): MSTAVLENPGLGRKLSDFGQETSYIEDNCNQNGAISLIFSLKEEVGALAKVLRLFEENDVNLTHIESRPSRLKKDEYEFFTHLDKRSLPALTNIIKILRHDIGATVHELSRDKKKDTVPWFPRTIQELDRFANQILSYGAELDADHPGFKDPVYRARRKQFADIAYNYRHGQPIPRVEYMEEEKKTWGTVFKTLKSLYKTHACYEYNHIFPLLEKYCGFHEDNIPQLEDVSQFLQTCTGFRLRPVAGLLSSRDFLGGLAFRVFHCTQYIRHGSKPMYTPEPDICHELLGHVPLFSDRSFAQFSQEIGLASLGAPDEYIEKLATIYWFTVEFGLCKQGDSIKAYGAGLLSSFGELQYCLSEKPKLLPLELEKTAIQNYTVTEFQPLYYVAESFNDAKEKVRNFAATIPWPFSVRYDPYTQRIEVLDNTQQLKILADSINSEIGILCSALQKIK
`O=C(c1nnc(-c2cnn(C(F)(F)F)c2)o1)N1CCc2[nH]cnc2[C@@H]1c1cc2cccc(C(F)(F)F)n2n1` [Example 2429, (R)-(5-(1-(trifluoromethyl)-1H-pyrazol-4-yl)-1,3,4-oxadiazol-2-yl)(4-(7-(trifluoromethyl)pyrazolo[1,5-a]pyridin-2-yl)-6,7-dihydro-1H-imidazo[4,5-c]pyridin-5(4H)-yl)methanone] gave an AC50 of 1 to 5 µM. For `O=C(c1nnc(C2CCC2)o1)N1CCc2[nH]cnc2[C@H]1c1cc2cccc(C(F)(F)F)n2n1` [Example 2430, (S)-(5-cyclobutyl-1,3,4-oxadiazol-2-yl)(4-(7-(trifluoromethyl)pyrazolo[1,5-a]pyridin-2-yl)-6,7-dihydro-1H-imidazo[4,5-c]pyridin-5(4H)-yl)methanone], the AC50 was 1 to 5 µM. With `O=C(c1nnc(C2CCC2)o1)N1CCc2[nH]cnc2[C@@H]1c1cc2cccc(C(F)(F)F)n2n1` [Example 2431, (R)-(5-cyclobutyl-1,3,4-oxadiazol-2-yl)(4-(7-(trifluoromethyl)pyrazolo[1,5-a]pyridin-2-yl)-6,7-dihydro-1H-imidazo[4,5-c]pyridin-5(4H)-yl)methanone] the AC50 was 1 to 5 µM. Compound `Fc1cccn2nc([C@@H]3c4nc[nH]c4CCN3c3nnc(C4CC4)o3)cc12` [Example 2433, (S)-2-cyclopropyl-5-(4-(4-fluoropyrazolo[1,5-a]pyridin-2-yl)-6,7-dihydro-1H-imidazo[4,5-c]pyridin-5(4H)-yl)-1,3,4-oxadiazole] has an AC50 of 1 to 5 µM. `Cn1cc(-c2ccc3c(C(=O)N4CCc5[nH]cnc5[C@H]4c4cc5c(F)cccn5n4)cnn3c2)cn1` [Example 2434, (S)-(4-(4-fluoropyrazolo[1,5-a]pyridin-2-yl)-6,7-dihydro-1H-imidazo[4,5-c]pyridin-5(4H)-yl)(6-(1-methyl-1H-pyrazol-4-yl)pyrazolo[1,5-a]pyridin-3-yl)methanone] was tested, and the AC50 was 1 to 5 µM. `Cn1cc(-c2ccc3c(C(=O)N4CCc5[nH]cnc5[C@@H]4c4cc5c(F)cccn5n4)cnn3c2)cn1` [Example 2435, (R)-(4-(4-fluoropyrazolo[1,5-a]pyridin-2-yl)-6,7-dihydro-1H-imidazo[4,5-c]pyridin-5(4H)-yl)(6-(1-methyl-1H-pyrazol-4-yl)pyrazolo[1,5-a]pyridin-3-yl)methanone] showed an AC50 of over 5 µM. `COCc1ccc2c(C(=O)N3CCc4[nH]cnc4[C@H]3c3cc4c(C)cccn4n3)cnn2c1` [Example 2436, (S)-(6-(methoxymethyl)pyrazolo[1,5-a]pyridin-3-yl)(4-(4-methylpyrazolo[1,5-a]pyridin-2-yl)-6,7-dihydro-1H-imidazo[4,5-c]pyridin-5(4H)-yl)methanone] gave an AC50 of 1 to 5 µM. With `COCc1ccc2c(C(=O)N3CCc4[nH]cnc4[C@@H]3c3cc4c(C)cccn4n3)cnn2c1` [Example 2437, (R)-(6-(methoxymethyl)pyrazolo[1,5-a]pyridin-3-yl)(4-(4-methylpyrazolo[1,5-a]pyridin-2-yl)-6,7-dihydro-1H-imidazo[4,5-c]pyridin-5(4H)-yl)methanone] the AC50 was over 5 µM. `Cn1cc(-c2ccc3c(C(=O)N4CCc5[nH]cnc5[C@H]4c4cc5cccc(C(F)(F)F)n5n4)cnn3c2)cn1` [Example 2438, (S)-(6-(1-methyl-1H-pyrazol-4-yl)pyrazolo[1,5-a]pyridin-3-yl)(4-(7-(trifluoromethyl)pyrazolo[1,5-a]pyridin-2-yl)-6,7-dihydro-1H-imidazo[4,5-c]pyridin-5(4H)-yl)methanone] was tested, and the AC50 was 1 to 5 µM. For `FC(F)(F)c1cccc2cc([C@@H]3c4nc[nH]c4CCN3c3nnc(-c4ccccn4)o3)nn12` [Example 2440, (S)-2-(pyridin-2-yl)-5-(4-(7-(trifluoromethyl)pyrazolo[1,5-a]pyridin-2-yl)-6,7-dihydro-1H-imidazo[4,5-c]pyridin-5(4H)-yl)-1,3,4-oxadiazole], the AC50 was 1 to 5 µM. Work on `Cc1nnc(N2CCc3[nH]cnc3[C@H]2c2cc3c(C)cccn3n2)o1` [Example 2443, (S)-2-methyl-5-(4-(4-methylpyrazolo[1,5-a]pyridin-2-yl)-6,7-dihydro-1H-imidazo[4,5-c]pyridin-5(4H)-yl)-1,3,4-oxadiazole] yielded an AC50 of 1 to 5 µM. Work on `Cn1cc(-c2nnc(C(=O)N3CCc4[nH]cnc4[C@H]3c3cc4c(OC(F)F)cccn4n3)o2)cn1` [Example 2445, (S)-(4-(4-(difluoromethoxy)pyrazolo[1,5-a]pyridin-2-yl)-6,7-dihydro-1H-imidazo[4,5-c]pyridin-5(4H)-yl)(5-(1-methyl-1H-pyrazol-4-yl)-1,3,4-oxadiazol-2-yl)methanone] yielded an AC50 of 1 to 5 µM. Compound `COc1cccn2nc([C@@H]3c4nc[nH]c4CCN3C(=O)c3nnc(-c4cnn(C(F)F)c4)o3)cc12` [Example 2446, (S)-(5-(1-(difluoromethyl)-1H-pyrazol-4-yl)-1,3,4-oxadiazol-2-yl)(4-(4-methoxypyrazolo[1,5-a]pyridin-2-yl)-6,7-dihydro-1H-imidazo[4,5-c]pyridin-5(4H)-yl)methanone] has an AC50 of 1 to 5 µM. With `COc1cccn2nc([C@H]3c4nc[nH]c4CCN3C(=O)c3nnc(-c4cnn(C(F)F)c4)o3)cc12` [Example 2447, (R)-(5-(1-(difluoromethyl)-1H-pyrazol-4-yl)-1,3,4-oxadiazol-2-yl)(4-(4-methoxypyrazolo[1,5-a]pyridin-2-yl)-6,7-dihydro-1H-imidazo[4,5-c]pyridin-5(4H)-yl)methanone] the AC50 was over 5 µM. Compound `O=C(c1nnc(-c2cnccn2)o1)N1CCc2[nH]cnc2[C@H]1c1cc2c(OC(F)F)cccn2n1` [Example 2448, (S)-(4-(4-(difluoromethoxy)pyrazolo[1,5-a]pyridin-2-yl)-6,7-dihydro-1H-imidazo[4,5-c]pyridin-5(4H)-yl)(5-(pyrazin-2-yl)-1,3,4-oxadiazol-2-yl)methanone] has an AC50 of 1 to 5 µM. `O=C(c1nnc(-c2cnccn2)o1)N1CCc2[nH]cnc2[C@@H]1c1cc2c(OC(F)F)cccn2n1` [Example 2449, (R)-(4-(4-(difluoromethoxy)pyrazolo[1,5-a]pyridin-2-yl)-6,7-dihydro-1H-imidazo[4,5-c]pyridin-5(4H)-yl)(5-(pyrazin-2-yl)-1,3,4-oxadiazol-2-yl)methanone] was tested, and the AC50 was over 5 µM. Compound `COc1ccc2c(C(=O)N3CCc4[nH]cnc4[C@H]3c3cc4c(C)cccn4n3)cnn2c1` [Example 2450, (S)-(6-methoxypyrazolo[1,5-a]pyridin-3-yl)(4-(4-methylpyrazolo[1,5-a]pyridin-2-yl)-6,7-dihydro-1H-imidazo[4,5-c]pyridin-5(4H)-yl)methanone] has an AC50 of 1 to 5 µM. `COc1ccc2c(C(=O)N3CCc4[nH]cnc4[C@@H]3c3cc4c(C)cccn4n3)cnn2c1` [Example 2451, (R)-(6-methoxypyrazolo[1,5-a]pyridin-3-yl)(4-(4-methylpyrazolo[1,5-a]pyridin-2-yl)-6,7-dihydro-1H-imidazo[4,5-c]pyridin-5(4H)-yl)methanone] was tested, and the AC50 was over 5 µM. For `O=C(c1cnn2cc(-c3ccccn3)ccc12)N1CCc2[nH]cnc2[C@H]1c1cc2cccc(C(F)(F)F)n2n1` [Example 2452, (S)-(6-(pyridin-2-yl)pyrazolo[1,5-a]pyridin-3-yl)(4-(7-(trifluoromethyl)pyrazolo[1,5-a]pyridin-2-yl)-6,7-dihydro-1H-imidazo[4,5-c]pyridin-5(4H)-yl)methanone], the AC50 was 1 to 5 µM. Compound `Clc1cccc2cc([C@@H]3c4nc[nH]c4CCN3c3ncccn3)nn12` [Example 2454, (S)-4-(7-chloropyrazolo[1,5-a]pyridin-2-yl)-5-(pyrimidin-2-yl)-4,5,6,7-tetrahydro-1H-imidazo[4,5-c]pyridine] has an AC50 of 1 to 5 µM. With `Clc1cccc2cc([C@H]3c4nc[nH]c4CCN3c3ncccn3)nn12` [Example 2455, (R)-4-(7-chloropyrazolo[1,5-a]pyridin-2-yl)-5-(pyrimidin-2-yl)-4,5,6,7-tetrahydro-1H-imidazo[4,5-c]pyridine] the AC50 was 1 to 5 µM. For `Cc1nnc(N2CCc3[nH]cnc3[C@H]2c2cc3c(Cl)cccn3n2)o1` [Example 2456, (S)-2-(4-(4-chloropyrazolo[1,5-a]pyridin-2-yl)-6,7-dihydro-1H-imidazo[4,5-c]pyridin-5(4H)-yl)-5-methyl-1,3,4-oxadiazole], the AC50 was 1 to 5 µM. Compound `O=C(c1nnc(-c2cnn(C(F)(F)F)c2)o1)N1CCc2[nH]cnc2[C@H]1c1cc2c(OC(F)F)cccn2n1` [Example 2458, (S)-(4-(4-(difluoromethoxy)pyrazolo[1,5-a]pyridin-2-yl)-6,7-dihydro-1H-imidazo[4,5-c]pyridin-5(4H)-yl)(5-(1-(trifluoromethyl)-1H-pyrazol-4-yl)-1,3,4-oxadiazol-2-yl)methanone] has an AC50 of 1 to 5 µM. Work on `FC(F)c1nnc(N2CCc3[nH]cnc3[C@H]2c2cc3ccccn3n2)o1` [Example 2461, (S)-2-(difluoromethyl)-5-(4-(pyrazolo[1,5-a]pyridin-2-yl)-6,7-dihydro-1H-imidazo[4,5-c]pyridin-5(4H)-yl)-1,3,4-oxadiazole] yielded an AC50 of 1 to 5 µM. Work on `O=C(c1cnn2cc(C3CC3)ccc12)N1CCc2[nH]cnc2[C@H]1c1cc2cccc(C(F)F)n2n1` [Example 2462, (S)-(6-cyclopropylpyrazolo[1,5-a]pyridin-3-yl)(4-(7-(difluoromethyl)pyrazolo[1,5-a]pyridin-2-yl)-6,7-dihydro-1H-imidazo[4,5-c]pyridin-5(4H)-yl)methanone] yielded an AC50 of 1 to 5 µM. `COc1ccc2c(C(=O)N3CCc4[nH]cnc4[C@H]3c3cc4cccc(Cl)n4n3)cnn2c1` [Example 2464, (S)-(4-(7-chloropyrazolo[1,5-a]pyridin-2-yl)-6,7-dihydro-1H-imidazo[4,5-c]pyridin-5(4H)-yl)(6-methoxypyrazolo[1,5-a]pyridin-3-yl)methanone] gave an AC50 of 1 to 5 µM.

— patent publication US20230365592A1 (Agios Pharmaceuticals, Inc., priority 2022, published 2023)
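Note: after compound treatment, cells received sepiapterin plus isotope-labelled Phenylalanine for 4 hours, then labelled Tyrosine in the medium was quantified, 10-point 2-fold dilution series run in duplicate.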
